We go through seven compounds from article PMC7525093, “Bis-Quinolinium Cyclophane Blockers of SK Potassium Channels Are Antagonists of M3 Muscarinic Acetylcholine Receptors” (Frontiers in Pharmacology, 2020).

Series [1] deals with mouse trachea. Nature of the series: Isometric tracheal tension measurement (organ bath). Particulars: for IC50: cumulative concentrations, Hill function, read-out: IC50, relaxation of carbachol-precontracted trachea; for Relaxation response of trachea: TrpM channel blocker. The protocol:
Mice used in these studies were BALB/C mice from Jackson Labs. All animal procedures were reviewed and approved by the University of Texas Health Science Center at San Antonio Institutional Animal Care and Use Committee. For tracheal constriction studies, animals were deeply anesthetized with isoflurane and then sacrificed by cervical dislocation. Isometric tracheal contraction measurements were performed as previously described ([Semenov et al., 2012]). Trachea were removed and surrounding tissues dissected in ice-cold physiologic saline solution (PSS) consisting of 119 mM NaCl, 4.7 mM KCl, 2.0 mM CaCl2, 1.0 mM KH2PO4, 1.17 mM MgSO4, 18 mM NaHCO3, 0.026 mM EDTA, 11 mM glucose, and 12.5 mM sucrose. Trachea were cut below the pharynx and above the primary bronchus bifurcation. Two metal wires, attached to a force transducer and micrometer (Radnoti, LLC), were threaded into the lumen of the trachea. Trachea were placed into an oxygenated organ bath (95% O2, 5% CO2), at 37°C, pH 7.35 (after bubbling with 95% O2–5% CO2). Tracheal resting tension was readjusted to 1 gram over 1 h and then challenged with 67 mM potassium PSS with NaCl adjusted to 56.7 mM to maintain proper osmolarity (KPS). Trachea were challenged two or more times until reproducible contractile responses were achieved. All subsequent experimental drug responses were normalized to the KPS response. Bladder measurements were conducted in a similar manner as trachea with identical solutions. The bladder was excised and formed into a ring by cutting anterior and posterior portions before mounting on metal wires for force measurements. For the aorta preparation, the ascending thoracic aorta was excised and cut into 2–3 mm sections before mounting on wires for force measurements.

Series [2] addresses T1, human M3 muscarinic acetylcholine receptor (Homo sapiens, UniProt P20309).
T1 construct: host or cells: CHO-K1 cells, stably transfected
Nature of the series: R-CEPIAer ER calcium assay of Gq-coupled receptor activation, M3-transfected CHO-K1 cells. It is filed as cell-based. Particulars: for Hill slope of inhibition curve, M3 receptor: Hill equation fit. As to the method: The binding of antagonists to Gq-coupled receptors was determined by measuring IP3-mediated calcium depletion from the endoplasmic reticulum (ER). This was accomplished using CHO-K1 cells stably transfected with human M3 muscarinic acetylcholine receptor (CEM3000000, cDNA Resource Center, Bloomsburg University) and R-CEPIAer, a low affinity ER-targeted calcium indicator fluorescent protein ([Suzuki et al., 2014]). R-CEPIAer reporting of ER calcium concentration was assessed using 564 nm excitation light (>590 long-pass emission) at 20 second intervals on a Nikon swept-field confocal microscope using slit-scan mode, 2x2 Binning, and 100 millisecond frames. F/Fmax was fluorescence intensity normalized to maximal fluorescence intensity during the experiment. The response of cells to Gq-coupled receptor agonist were measured as the change in F/Fmax (ΔF/Fmax) from preagonist value to fluorescence minimum during agonist application (that occurs by IP3-mediated ER calcium depletion). […] Perfusion of each agonist application was for 2 min, while the antagonist overlapped and preceded the second agonist application by 3 min. […] IC50 was calculated by assaying fractional inhibition using a dose-response of antagonist concentrations (i.e. Figure 1D ). For assays of other receptors such as the M1 and M5 muscarinic receptors, H1 histamine and P2Y1 purinergic receptors, these receptors were transiently co-transfected with the pCMV R-CEPIAer plasmid (a gift from Masamitsu Iino (Addgene plasmid # 58216; http://n2t.net/addgene:58216; RRID : Addgene_58216)) into CHO cells using polyethylenimine [according to previous methods ([Longo et al., 2013])]. IC50 and EC50 values were estimated by fitting the dose-response relationship to a Hill equation.
To obtain a pKB using a Schild analysis ([Arunlakshana and Schild, 1959]), the acetylcholine EC50 was measured in the absence of UCL1684 and EC50′ measured in the presence of increasing concentrations of UCL1684. These values were used to calculate a dose ratio (DR = EC50′/EC50) for each UCL1684 concentration. The log(DR − 1) was plotted vs. log UCL1684 concentrations and fit to a linear equation where the theoretical X-intercept was used to estimate a pKB.

Series [3] deals with SK potassium channels. Conditions: cited from earlier work.
The subject of series [4] is CNG1. More on the design: method as in Rosenbaum et al., 2004. Conditions: ref Rosenbaum et al., 2004; read-out: IC50, block of CNG1 channels; cited from earlier work.
Series [5] has as its system CNG2. Set-up: method as in Rosenbaum et al., 2004. Conditions: ref Rosenbaum et al., 2004; read-out: IC50, block of CNG2 channels; cited from earlier work.
Series [6] relates to mouse. More on the design: method as in Gamboa-Vujicic et al., 1993. Conditions: ref Gamboa-Vujicic et al., 1993, cited from earlier work.
Setting [7] is: 5 μM antagonist, 0.5 μM carbachol, 0 = none, 1 = complete inhibition.

Where a name gives a salt, the structure may show the parent alone. Read-outs that look alike come from different tables or passages of the source. Ends that are not written are not given here.

T1 sequence (P20309 whole entry): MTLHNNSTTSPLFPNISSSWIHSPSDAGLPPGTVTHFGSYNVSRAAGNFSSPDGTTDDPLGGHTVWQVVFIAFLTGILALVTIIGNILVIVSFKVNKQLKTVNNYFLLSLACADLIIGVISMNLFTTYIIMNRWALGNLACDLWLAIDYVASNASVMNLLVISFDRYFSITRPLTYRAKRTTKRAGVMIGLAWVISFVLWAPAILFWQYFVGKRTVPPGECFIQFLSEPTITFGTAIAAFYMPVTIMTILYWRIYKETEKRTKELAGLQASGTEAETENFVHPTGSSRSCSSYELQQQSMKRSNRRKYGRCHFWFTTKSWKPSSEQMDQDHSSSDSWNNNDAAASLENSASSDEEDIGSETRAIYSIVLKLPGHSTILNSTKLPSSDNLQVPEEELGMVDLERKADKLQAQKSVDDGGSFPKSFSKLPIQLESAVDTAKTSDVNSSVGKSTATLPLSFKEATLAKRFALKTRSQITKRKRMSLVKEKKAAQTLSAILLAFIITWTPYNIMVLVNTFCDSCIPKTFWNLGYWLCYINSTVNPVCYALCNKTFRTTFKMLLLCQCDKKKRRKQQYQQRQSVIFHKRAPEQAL

A word on the IC50: it is the concentration needed to halve the response being measured. As for `Cl.c1ccc2c(c1)CCC[C@H]2Nc1nc2ccccc2[nH]1` [NS8593, N-[(1R)-1,2,3,4-Tetrahydro-1-naphthalenyl]-1H-benzimidazol-2-amine hydrochloride], the 50% inhibitory concentration (IC50) in series [1] (0.5 μM carbachol) worked out at 31500 ± 2000 nM; in series [1] (Mus musculus, 0.5 μM carbachol) it was 31000 nM; in series [2], 83000 nM. In series [1] (76.8 μM (highest concentration), 0.5 μM carbachol), the “Relaxation of precontracted trachea” value is recorded as “complete relaxation”. The “Hill slope of inhibition curve, M3 receptor” value (“Hill slope of inhibition curve” for short) in series [2] (0.5 μM carbachol) was 1.7 ± 0.35. Further, the “Effect on M3 carbachol response” value in series [2] (10 μM antagonist, 0.5 μM carbachol) is given as “undetectable”. Moreover, in series [2] (100 μM antagonist, 0.5 μM carbachol), the “Fractional inhibition of second carbachol response” value (“Fractional inhibition” for short) is given as 0.60 ± 0.03.
With `c1ccc2c(c1)c1cc[n+]2CCCCC[n+]2ccc(c3ccccc32)NCCCCCN1` [UCL 1848, 8,14-Diaza-1,7(1,4)-diquinolinacyclotetradecaphane trifluoroacetate salt], the IC50 in series [3] (effects on SK-dependent fast-afterhyperpolarizing currents, ref Campos Rosa et al., 1996, Chen et al., 2000, Blank et al., 2004, read-out: IC50, SK potassium channels) is 2 nM; in series [3] (ref Chen et al., 2000, read-out: IC50, block of SK channels), 2.7 nM; in series [2] it was 1000 nM. Moreover, in series [2] (0.5 μM carbachol), the “Hill slope of inhibition curve” value is 1.47 ± 0.46. The “Fractional inhibition” value in series [2] (setting [7]) is 0.98 ± 0.01.
In the case of `CCCCCCCCCCCCC/C=C/[C@@H](O)[C@@H](N)CO` [d-erthyro-sphingosine], in series [1] (8.1 μM), the “Relaxation response of trachea” value stood at 14.9 ± 6.0.
Take `Cc1cc(=N)c2ccccc2n1CCCCCCCCCCn1c(C)cc(=N)c2ccccc21.Cl.Cl` [dequalinium chloride, 1-[10-(4-imino-2-methyl-1,4-dihydroquinolin-1-yl)decyl]-2-methyl-1,4-dihydroquinolin-4-imine dihydrochloride]: the IC50 in series [4] is 190 nM; in series [3] (ref Castle et al., 1993, Dunn, 1994, read-out: IC50, block of SK potassium channels) it was 1500 nM; in series [2], 270 nM; in series [5] it was 2400 nM. In addition, in series [2] (0.5 μM carbachol), the “Hill slope of inhibition curve” value worked out at 0.90 ± 0.29. Further, the “Fractional inhibition” value in series [2] (setting [7]) came to 0.99 ± 0.003.
The term LD50 denotes the dose expected to kill half of the subjects tested. As to `Cc1cc(N)c2ccccc2[n+]1CCCCCCCCCC[n+]1c(C)cc(N)c2ccccc21.[Cl-].[Cl-]` [dequalinium chloride, 1-[10-(4-imino-2-methyl-1,4-dihydroquinolin-1-yl)decyl]-2-methyl-1,4-dihydroquinolin-4-imine dihydrochloride], the values for the LD50 in series [6] (intraperitoneal administration) and in series [6] (oral administration) were 18.3 mg/kg and 300 mg/kg, respectively.
As to `CC(Cc1ccc(O)c(O)c1)C(C)Cc1ccc(O)c(O)c1` (stereo not drawn) [nordihydroguaiaretic acid], in series [1] (25 μM), the “Relaxation response of trachea” value was 12.4 ± 8.5.
Turning to “Apamin: peptide blocker of SK channels (CNCKAPETALCARRCQQH; not fully specified (C-terminus, bridges); cysteine pairing not given here; UniProt P01500 28-45, looked up)”, in series [1] (100 nM, 0.5 μM carbachol), the “Relaxation of ASM contractions” value is listed as “did not relax ASM contractions” and the “Relaxation response of trachea, single dose” value was −15 ± 7.
